Measurements reported in patent publication US12552799B2, “Triazolone compounds” (Nxera Pharma UK Limited, priority 2020, dated 2026).

Key:
[1] = biological target: human adenosine A1 receptor (Homo sapiens (Human), UniProt P30542); experiment: Adenosine receptor binding assay, A1 ([3H]DPCPX inhibition binding on membranes); details: 1 nM [3H]DPCPX, 25° C., 1 h; Ki from IC50 by Cheng-Prusoff
Description: (§1) Inhibition binding assays were performed using 0.2 μg of membranes prepared from HEK293 cells infected with BacMam human adenosine A2A receptor or 1.4 μg of membranes prepared from HEK293 cells infected with BacMam human adenosine A1 receptor. Membranes were incubated in 50 mM Tris-HCl (HEK293-hA2A; pH 7.4) or 50 mM Tris-HCl, 100 mM NaCl, 10 mM MgCl2 (CHO-hA1; pH 7.4) in the presence of varying concentrations of test compound and 1 nM [^3H]ZM241385 (HEK293-hA2A) or [^3H]DPCPX (CHO-hA1) at 25° C. for 1 h. The assay was then terminated by rapid filtration onto GF/B grade Unifilter plates using a TomTec cell harvester, followed by 5×0.5 ml washes with ddH2O. Nonspecific binding was defined in the presence of 1 μM CGS15943 (HEK293-hA2A) or 1 μM DPCPX (CHO-hA1). Bound radioactivity was determined by liquid scintillation counting and inhibition curves were analysed using a four-parameter logistic equation. IC50 values were converted to Ki values with the Cheng-Prusoff equation using a KD value derived from saturation binding studies.

[2] = biological target: human adenosine A2A receptor (Homo sapiens (Human), UniProt P29274); experiment: Adenosine receptor binding assay, A2A ([3H]ZM241385 inhibition binding on HEK293 membranes); details: 1 nM [3H]ZM241385, 25° C., 1 h; Ki from IC50 by Cheng-Prusoff
Sequence of human adenosine A2A receptor (P29274 whole entry): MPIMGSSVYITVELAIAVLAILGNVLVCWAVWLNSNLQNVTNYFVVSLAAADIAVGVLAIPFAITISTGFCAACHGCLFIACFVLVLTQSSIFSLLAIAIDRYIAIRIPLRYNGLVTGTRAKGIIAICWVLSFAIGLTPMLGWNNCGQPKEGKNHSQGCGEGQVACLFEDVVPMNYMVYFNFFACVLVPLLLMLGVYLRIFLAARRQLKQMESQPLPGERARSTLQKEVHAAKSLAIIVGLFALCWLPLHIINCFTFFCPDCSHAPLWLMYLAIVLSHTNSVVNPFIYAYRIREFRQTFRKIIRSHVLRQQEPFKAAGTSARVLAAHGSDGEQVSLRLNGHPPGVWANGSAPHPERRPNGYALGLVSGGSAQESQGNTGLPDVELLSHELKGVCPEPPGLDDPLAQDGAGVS
Description: as §1

[3] = biological target: human CB1 receptor (Homo sapiens (Human), UniProt P21554); experiment: CB1 receptor antagonism, agonist-induced cAMP modulation (HTRF) in transfected CHO cells; assay type: cell-based; details: inhibition of control response to 3 nM CP 55940, cAMP HTRF, read-out: Antag IC50
Sequence of human CB1 receptor (P21554 whole entry): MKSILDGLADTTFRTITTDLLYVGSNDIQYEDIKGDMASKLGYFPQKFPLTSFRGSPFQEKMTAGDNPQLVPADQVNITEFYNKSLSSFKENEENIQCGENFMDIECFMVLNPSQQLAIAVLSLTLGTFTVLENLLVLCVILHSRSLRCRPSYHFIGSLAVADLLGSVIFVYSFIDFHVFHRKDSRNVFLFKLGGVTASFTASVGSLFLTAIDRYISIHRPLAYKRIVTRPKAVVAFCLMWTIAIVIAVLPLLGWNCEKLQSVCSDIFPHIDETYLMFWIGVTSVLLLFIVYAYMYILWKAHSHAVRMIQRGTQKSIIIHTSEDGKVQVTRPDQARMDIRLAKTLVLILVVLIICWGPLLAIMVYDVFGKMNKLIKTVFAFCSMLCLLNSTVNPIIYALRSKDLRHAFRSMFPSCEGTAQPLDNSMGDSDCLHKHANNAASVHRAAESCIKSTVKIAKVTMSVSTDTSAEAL
Description: Receptor antagonism: Evaluation of the antagonist activity of compounds at the human CB1 receptor expressed in transfected CHO cells, determined by measuring their effects on agonist-induced cAMP modulation using the HTRF detection method.
The cells are suspended in HBSS buffer (Invitrogen) complemented with 20 mM HEPES (pH 7.4), then distributed in microplates at a density of 5.10^3 cells/well and preincubated for 5 min at room temperature in the presence of either of the following: HBSS (stimulated control), the reference antagonist AM 281 at 3 μM (basal control) or various concentrations (IC50 determination), or the test compounds.
Thereafter, the reference agonist CP 55940 and the adenylyl cyclase activator NKH 477 are added at respective final concentrations of 3 nM and 3 μM.
For basal control measurements, CP 55940 is omitted from the wells containing 3 μM AM 281.
Following 20 min incubation at 37° C., the cells are lysed and the fluorescence acceptor (D2-labeled cAMP) and fluorescence donor (anti-cAMP antibody labeled with europium cryptate) are added.
After 60 min at room temperature, the fluorescence transfer is measured at λex=337 nm and λem=620 and 665 nm using a microplate reader (Rubystar, BMG). The cAMP concentration is determined by dividing the signal measured at 665 nm by that measured at 620 nm (ratio).
The results are expressed as a percent inhibition of the control response to 3 nM CP 55940.
The standard reference antagonist is AM 281, which is tested in each experiment at several concentrations to generate a concentration-response curve from which its IC50 value is calculated.

Sequence of human adenosine A1 receptor (P30542 whole entry): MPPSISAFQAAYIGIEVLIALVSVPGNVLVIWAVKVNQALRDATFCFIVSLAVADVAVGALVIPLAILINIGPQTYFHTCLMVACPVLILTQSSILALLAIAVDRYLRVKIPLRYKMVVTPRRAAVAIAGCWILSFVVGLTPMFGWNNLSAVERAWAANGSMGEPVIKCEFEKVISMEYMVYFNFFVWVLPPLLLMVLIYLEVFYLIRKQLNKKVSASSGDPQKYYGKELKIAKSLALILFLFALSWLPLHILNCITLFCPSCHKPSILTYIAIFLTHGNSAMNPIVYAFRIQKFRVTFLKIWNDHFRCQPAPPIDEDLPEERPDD

| SMILES | A1 pKi [1] | A2A pKi [2] | IC50 [3] |
| --- | --- | --- | --- |
| C[C@@H]1CN(c2c(-c3ccccc3)nc(N)n3c(=O)n(CCN4CCCCC4)nc23)C[C@H](C)O1 [Example 1-9, 5-amino-8-[(cis)-2,6-dimethylmorpholin-4-yl]-7-phenyl-2-[2-(1-piperidyl)ethyl]-[1,2,4]triazolo[4,3-c]pyrimidin-3-one] | <5.5 | 6.7 | – |
| COc1ncccc1Cn1nc2c(N3C[C@@H](C)O[C@@H](C)C3)c(-c3ccccc3)nc(N)n2c1=O [Example 1-15, 5-amino-8-[(cis)-2,6-dimethylmorpholin-4-yl]-2-[(2-methoxy-3-pyridyl)methyl]-7-phenyl-[1,2,4]triazolo[4,3-c]pyrimidin-3-one] | 6.4 | 8.4 | – |
| C[C@@H]1CN(c2c(-c3ccccc3)nc(N)n3c(=O)n(CCc4ccccc4)nc23)C[C@H](C)O1 [Example 1-17, 5-amino-8-[(cis)-2,6-dimethylmorpholin-4-yl]-7-phenyl-2-(2-phenylethyl)-[1,2,4]triazolo[4,3-c]pyrimidin-3-one] | <5.8 | 7.2 | – |
| C[C@@H]1CN(c2c(-c3ccccc3)nc(N)n3c(=O)n(C[C@H]4COCCN4)nc23)C[C@H](C)O1 [Example 1-10, 5-amino-8-[(cis)-2,6-dimethylmorpholin-4-yl]-2-[[(3S)-morpholin-3-yl]methyl]-7-phenyl-[1,2,4]triazolo[4,3-c]pyrimidin-3-one] | <5.4 | 6.9 | – |
| C[C@@H]1CN(c2c(-c3ccccc3)nc(N)n3c(=O)n(C[C@H]4COCCN4C)nc23)C[C@H](C)O1 [Example 1-12, 5-amino-8-[(cis)-2,6-dimethylmorpholin-4-yl]-2-[[(3S)-4-methylmorpholin-3-yl]methyl]-7-phenyl-[1,2,4]triazolo[4,3-c]pyrimidin-3-one] | <5.4 | 6.9 | – |
| C[C@@H]1CN(c2c(-c3ccccc3)nc(N)n3c(=O)n(C[C@@H]4COCCN4C)nc23)C[C@H](C)O1 [Example 1-13, 5-amino-8-[(cis)-2,6-dimethylmorpholin-4-yl]-2-[[(3R)-4-methylmorpholin-3-yl]methyl]-7-phenyl-[1,2,4]triazolo[4,3-c]pyrimidin-3-one] | <5.4 | 7.1 | – |
| C[C@@H]1CN(c2c(-c3ccccc3)nc(N)n3c(=O)n(Cc4cccnn4)nc23)C[C@H](C)O1 [Example 1-16, 5-amino-8-[(cis)-2,6-dimethylmorpholin-4-yl]-7-phenyl-2-(pyridazin-3-ylmethyl)-[1,2,4]triazolo[4,3-c]pyrimidin-3-one] | 6.1 | 7.2 | – |
| C[C@@H]1CN(c2c(-c3ccccc3)nc(N)n3c(=O)n(CCC(F)F)nc23)C[C@H](C)O1 [Example 1-3, 5-amino-2-(3,3-difluoropropyl)-8-[(cis)-2,6-dimethylmorpholin-4-yl]-7-phenyl-[1,2,4]triazolo[4,3-c]pyrimidin-3-one] | <5.4 | 7.1 | – |
| C[C@@H]1CN(c2c(-c3ccccc3)nc(N)n3c(=O)n(C[C@@H]4COCCN4)nc23)C[C@H](C)O1 [Example 1-11, 5-amino-8-[(cis)-2,6-dimethylmorpholin-4-yl]-2-[[(3R)-morpholin-3-yl]methyl]-7-phenyl-[1,2,4]triazolo[4,3-c]pyrimidin-3-one] | <5.6 | 6.7 | – |
| CCCn1nc2c(N3C[C@@H](C)O[C@@H](C)C3)c(-c3ccc(F)cc3)nc(N)n2c1=O [Example 1-6, 5-amino-8-[(cis)-2,6-dimethylmorpholin-4-yl]-7-(4-fluorophenyl)-2-propyl-[1,2,4]triazolo[4,3-c]pyrimidin-3-one] | 6.4 | 6.9 | – |
| C[C@@H]1CN(c2c(-c3ccc(F)cc3)nc(N)n3c(=O)n(CCC(F)(F)F)nc23)C[C@H](C)O1 [Example 1-5, 5-amino-8-[(cis)-2,6-dimethylmorpholin-4-yl]-7-(4-fluorophenyl)-2-(3,3,3-trifluoropropyl)-[1,2,4]triazolo[4,3-c]pyrimidin-3-one] | <5.5 | 7.3 | – |
| C[C@@H]1CN(c2c(-c3ccccc3)nc(N)n3c(=O)n(C[C@H]4CCCO4)nc23)C[C@H](C)O1 [Example 1-8, 5-amino-8-[(cis)-2,6-dimethylmorpholin-4-yl]-7-phenyl-2-[[(2R)-tetrahydrofuran-2-yl]methyl]-[1,2,4]triazolo[4,3-c]pyrimidin-3-one] | – | – | > 100 µM |

More lines, now with the values ahead:

| A1 pKi [1] | A2A pKi [2] | IC50 [3] | SMILES |
| --- | --- | --- | --- |
| <5.5 | 7.4 | – | C[C@@H]1CC(c2c(-c3ccccc3)nc(N)n3c(=O)n(CCC(F)(F)F)nc23)C[C@H](C)O1 (stereo partly drawn) [Example 2-2, 5-amino-8-[(cis)-2,6-dimethyltetrahydropyran-4-yl]-7-phenyl-2-(3,3,3-trifluoropropyl)-[1,2,4]triazolo[4,3-c]pyrimidin-3-one] |
| 7.7 | 9.9 | – | Cc1nc(Cn2nc3c(-c4cc(C)c5ncoc5c4)c(-c4ccc(F)cc4)nc(N)n3c2=O)c(C)o1 [Example 4-7, 5-amino-2-[(2,5-dimethyloxazol-4-yl)methyl]-7-(4-fluorophenyl)-8-(4-methyl-1,3-benzoxazol-6-yl)-[1,2,4]triazolo[4,3-c]pyrimidin-3-one] |
| 8.4 | 9.6 | – | Cc1ocnc1Cn1nc2c(-c3cc(C)c4[nH]ncc4c3)c(-c3ccc(F)cc3)nc(N)n2c1=O [Example 4-8, 5-amino-7-(4-fluorophenyl)-8-(7-methyl-1H-indazol-5-yl)-2-[(5-methyloxazol-4-yl)methyl]-[1,2,4]triazolo[4,3-c]pyrimidin-3-one] |
| – | – | > 100 µM | Cc1cc(-c2c(-c3ccccc3)nc(N)n3c(=O)n(Cc4ccc(F)cn4)nc23)cc(C)c1O [Example 3-1, 5-amino-2-[(5-fluoro-2-pyridyl)methyl]-8-(4-hydroxy-3,5-dimethyl-phenyl)-7-phenyl-[1,2,4]triazolo[4,3-c]pyrimidin-3-one] |
| 8.7 | 10.0 | – | [2H]c1c([2H])c([2H])c(-c2nc(N)n3c(=O)n(Cc4ncoc4C)nc3c2-c2cc(C)c3[nH]ncc3c2)c([2H])c1[2H] [Example 4-10, 5-amino-8-(7-methyl-1H-indazol-5-yl)-2-[(5-methyloxazol-4-yl)methyl]-7-(2,3,4,5,6-pentadeuteriophenyl)-[1,2,4]triazolo[4,3-c]pyrimidin-3-one] |
| 6.9 | 9.8 | – | Cc1ccc(Cn2nc3c(-c4cc(C)c5ncoc5c4)c(-c4ccc(F)cc4)nc(N)n3c2=O)nc1 [Example 4-3, 5-amino-7-(4-fluorophenyl)-8-(4-methyl-1,3-benzoxazol-6-yl)-2-[(5-methyl-2-pyridyl)methyl]-[1,2,4]triazolo[4,3-c]pyrimidin-3-one] |
| – | – | 17.9 µM | Cc1ocnc1Cn1nc2c(-c3cc(C)c4ncoc4c3)c(-c3ccccc3)nc(N)n2c1=O [Example 4-6, 5-amino-8-(4-methyl-1,3-benzoxazol-6-yl)-2-[(5-methyloxazol-4-yl)methyl]-7-phenyl-[1,2,4]triazolo[4,3-c]pyrimidin-3-one] |
